The values below come from patent publication US20260248822A1, “METHOD AND COMPOSITION FOR THE TREATMENT OF CANCER” (IMPACT HEALTH GLOBAL LTD., priority 2023, published 2026).

One assay relates to human lung cancer cells. As to conditions: cited from earlier work.
For the next assay, the system named is 4T1 cells. Kind of assay: MTT cell viability assay in 4T1 cells. The class given is cell-based, Mouse. The conditions noted are these: for cancer cell viability, dose dependence: 4T1 cells, 0.5, 1, 1.5 and 2 mM, compared to the control; for cytotoxicity at 2000 µM: Mus musculus, read-out: reduction of cell viability compared to the control. The protocol: Mouse breast carcinoma model (4T1 cells) were cultured in the presence of taraxasterol, vitexin, sinigrin or a mixture of all these molecules, at the indicated concentrations (0.5, 1, 1.5, and 2 mM), for 48 hours. Cell viability was determined by MTT colorimetric assay, in which a yellow tetrazole is reduced to purple formazan in living cells. The resultant color was measured at 450 nm. Reduced viability of cancer cells was a marker for the efficacy of the treatment.
For orientation: Formazan colour is commonly taken as a measure of viable cells.

A further assay relates to human colon cancer cells. The conditions noted are these: cited from earlier work.
A further assay relates to tumors. The conditions noted are these: mouse, in vivo; cited from earlier work.

Where two headings read alike, the source gives them in different places.

As for `C=CC/C(=N/OS(=O)(=O)O)S[C@@H]1O[C@H](CO)[C@@H](O)[C@H](O)[C@H]1O` [sinigrin, (Z)-N-[1-(β-D-glucopyranosylsulfanyl)but-3-en-1-ylidene] hydroxylamine-O-sulfonic acid], in the assay on human lung cancer cells, the “apoptosis in human lung cancer cells” value is “induces apoptosis”. Besides, the “cancer cell viability, dose dependence” value in the assay on 4T1 cells (48 hours) was “reduced cancer cell viability dose dependently”. The cytotoxicity at 2000 µM in the assay with 4T1 cells (4T1, 48 h) was 23%.
Consider `C=C1CC[C@]2(C)CC[C@]3(C)[C@H](CC[C@@H]4[C@@]5(C)CC[C@H](O)C(C)(C)[C@@H]5CC[C@]43C)[C@H]2[C@@H]1C` [taraxasterol, (3S,4aR,6aR,6bR,8aR,12S,12aR,12bR,14aR,14bR)-4,4,6a,6b,8a,12, 14b-heptamethyl-11-methylidenedocosahydropicen-3-ol], for which, in the assay with human colon cancer cells, the “apoptosis in human colon cancer cells” value is listed as “induces apoptosis” and the “tumor growth in human colon cancer cells” value is “suppresses tumor growth”. In addition, the “cancer cell viability, dose dependence” value in the assay on 4T1 cells (48 hours) is on record as “reduced cancer cell viability dose dependently”. In the assay with 4T1 cells (4T1 cells, 2 mM, 48 hours, MTT), the cytotoxicity at 2000 µM was found to be 29%.
For `O=c1cc(-c2ccc(O)cc2)oc2c([C@@H]3O[C@H](CO)[C@@H](O)[C@H](O)[C@H]3O)c(O)cc(O)c12` [vitexin, 8-(β-D-glucopyranosyl)-4′,5,7-trihydroxyflavone], the “apoptosis in human lung cancer cells” value with human lung cancer cells is “induces apoptosis”. The “cancer cell viability, dose dependence” value in the assay with 4T1 cells (48 hours) is listed as “reduced cancer cell viability dose dependently”. In the assay on 4T1 cells (4T1 cells, 2 mM, 48 hours, MTT), the cytotoxicity at 2000 µM is 20%. Moreover, the “growth of tumors in mice” value in the assay on tumors was “suppresses the growth of tumors”.
